{
  "source": "patent US11472799B2",
  "about": "“Serine threonine kinase (AKT) degradation / disruption compounds and methods of use” (Icahn School of Medicine at Mount Sinai, priority 2018, dated 2022)",
  "key": {"AKT [1]": {"tested_on": "AKT", "experiment": "Western blot of AKT protein levels in PC-3 cells", "type": "cell-based, human", "conditions": "for suppression of AKT protein level and AKT activity: 1 μM (FIGS. 11 and 12)", "experimental": "(§1) PC-3, U87MG, HCC1143, MDA-MB-231, MDA-MB-468, BT474 and MCF-7 cell lines were purchased from ATCC. Cell lines were regularly tested in the lab for mycoplasma. All cells were cultured at 37° C. and 5% CO2. PC-3, U87MG, MDA-MB-231, MCF-7 and BT474 cells were cultured in 1×DMEM (Corning, 10-013-CV) with 10% fetal bovine serum (Atlanta Biologicals S11150) and 1× Penicillin/Streptomycin. HCC1143 cells were cultured in RPMI (Corning, 10-040-CV) medium with 10% fetal bovine serum (Atlanta Biologicals S11150) and 1× Penicillin/Streptomycin. Cells were split using 0.05% or 0.25% trypsin (Corning 25-051-Cl or 25-053-Cl, respectively) before they reached full confluence and media was changed every 3-4 days. Cells were treated with compounds individually at different concentrations for 24 hrs. Cells were treated with DMSO, VHL, or PML alone as controls.\n(§2) Cells were lysed in 2× sample buffer (125 mM Tris-HCl at pH 6.8, 10% βME, 2% SDS, 20% glycerol, 0.05% Bromophenol Blue, 8 M urea). Protein lysates were loaded into 4-12% Bis-Tris gels and resolved by electrophoresis. Samples were then blotted on PVDF membrane (Millipore IPVH00010) using the wet transfer technique (Invitrogen). Membranes were blocked in 5% milk-TBST for 1 hour, washed in TBST for 10 min, and incubated in primary antibody in 5% milk-TBST or 5% BSA-TBST at 4° C. for 16 h. Membranes were rinsed (3×6 min) in TBST and incubated in horseradish peroxidase-conjugated secondary antibodies in 5% milk-TBST for 1 hour and rinsed again in TBST (3×6 min). Membranes were visualized using the chemiluminescence system (Thermo 34080, 37075) on autoradiography film (Denville E3018). Primary Antibodies: R-actin (Sigma A5316), p-AKT (Ser473 CST-9721), total AKT (CST-9272), p-S6 (Ser240/244, CST-5364), p-PRAS40 (Thr246, CST-2997). Secondary Antibodies: Mouse (Thermo 31432), Rabbit (Thermo 31460)."}, "AKT [2]": {"tested_on": "AKT", "experiment": "Western blot of AKT protein levels and downstream signaling in BT474 cells", "type": "cell-based, human", "conditions": "Western blot (FIGS. 1, 3, 4)", "experimental": "as §1, §2"}},
  "data": [
    {"molecule": "Cc1ncsc1-c1ccc(CNC(=O)[C@@H]2C[C@@H](O)CN2C(=O)[C@@H](NC(=O)CCCCCCC(=O)NCCc2cccc(-c3ccc4nc(-c5cccnc5N)n(-c5ccc(C6(N)CCC6)cc5)c4n3)c2)C(C)(C)C)cc1", "note": "[XF067-44, N^1-(3-(3-(4-(1-aminocycIobutyl)phenyl)-2-(2-aminopyridin-3-yl)-3H-imidazo[4,5-b]pyridin-5-yl)phenethyl)-N^8-((S)-1-((2S,4R)-4-hydroxy-2-((4-(4-methylthiazol-5-yl)benzyl)carbamoyl)pyrrolidin-1-yl)-3,3-dimethyl-1-oxobutan-2-yl)octanediamide]", "values": [
      {"measurement": "suppression of AKT protein level and AKT activity", "setting": "AKT [1]", "result": "effective in suppressing AKT protein level and AKT activity"}
    ]},
    {"molecule": "Cc1ncsc1-c1ccc(CNC(=O)[C@@H]2C[C@@H](O)CN2C(=O)[C@@H](NC(=O)CCCCCCCCCC(=O)NCCc2cccc(-c3ccc4nc(-c5cccnc5N)n(-c5ccc(C6(N)CCC6)cc5)c4n3)c2)C(C)(C)C)cc1", "note": "[XF067-47, N^1-(3-(3-(4-(1-aminocyclobutyl)phenyl)-2-(2-aminopyridin-3-yl)-3H-imidazo[4,5-b]pyridin-5-yl)phenethyl)-N^11-((S)-1-((2S,4R)-4-hydroxy-2-((4-(4-methylthiazol-5-yl)benzyl)carbamoyl)pyrrolidin-1-yl)-3,3-dimethyl-1-oxobutan-2-yl)undecanediamide]", "values": [
      {"measurement": "suppression of AKT protein level and AKT activity", "setting": "AKT [1]", "result": "effective in suppressing AKT protein level and AKT activity"}
    ]},
    {"molecule": "Nc1ncccc1-c1nc2ccc(-c3ccccc3)nc2n1-c1ccc(C2(N)CCC2)cc1", "note": "[ARQ-092, 3-(3-(4-(1-Aminocyclobutyl)phenyl)-5-phenyl-3H-imidazo[4,5-b]pyridin-2-yl)pyridin-2-amine, reference compound]", "values": [
      {"measurement": "AKT protein levels", "setting": "AKT [1]; 1 μM for 24 h (FIGS. 11, 12)", "result": "no effect"}
    ]},
    {"molecule": "CCn1c(-c2nonc2N)nc2c(C#CC(C)(C)O)ncc(OCCCNCCCC(=O)NCCCCCCCCCC(=O)N[C@H](C(=O)N3C[C@H](O)C[C@H]3C(=O)NCc3ccc(-c4scnc4C)cc3)C(C)(C)C)c21", "note": "[XF067-100, (2S,4R)-1-((S)-2-(10-(4-((3-((2-(4-amino-1,2,5-oxadiazol-3-yl)-1-ethyl-4-(3-hydroxy-3-methylbut-1-yn-1-yl)-1H-imidazo[4,5-c]pyridin-7-yl)oxy)propyl)amino)butanamido)decanamido)-3,3-dimethylbutanoyl)-4-hydroxy-N-(4-(4-methylthiazol-5-yl)benzyl)pyrrolidine-2-carboxamide]", "values": [
      {"measurement": "suppression of AKT protein level and AKT activity", "setting": "AKT [1]", "result": "effective in suppressing AKT protein level and AKT activity"}
    ]},
    {"molecule": "Cc1ncsc1-c1ccc(CNC(=O)[C@@H]2C[C@@H](O)CN2C(=O)[C@@H](NC(=O)CCCCCCCCNC(=O)CCc2cccc(-c3ccc4nc(-c5cccnc5N)n(-c5ccc(C6(N)CCC6)cc5)c4n3)c2)C(C)(C)C)cc1", "note": "[XF067-16, (2S,4R)-1-((S)-2-(9-(3-(3-(3-(4-(1-aminocyclobutyl)phenyl)-2-(2-aminopyridin-3-yl)-3H-imidazo[4,5-b]pyridin-5-yl)phenyl)propanamido)nonanamido)-3,3-dimethylbutanoyl)-4-hydroxy-N-(4-(4-methylthiazol-5-yl)benzyl)pyrrolidine-2-carboxamide]", "values": [
      {"measurement": "suppression of AKT protein level and AKT activity", "setting": "AKT [1]", "result": "effective in suppressing AKT protein level and AKT activity"}
    ]},
    {"molecule": "C[C@@H]1C[C@@H](O)c2ncnc(N3CCN(C(=O)[C@H](CNCCC(=O)NCCOCCOCCOCCNc4cccc5c4C(=O)N(C4CCC(=O)NC4=O)C5=O)c4ccc(Cl)cc4)CC3)c21", "note": "(stereo partly drawn) [XF048-8, 3-(((S)-2-(4-chlorophenyl)-3-(4-((5R,7R)-7-hydroxy-5-methyl-6,7-dihydro-5H-cyclopenta[d]pyrimidin-4-yl)piperazin-1-yl)-3-oxopropyl)amino)-N-(2-(2-(2-(2-((2-(2,6-dioxopiperidin-3-yl)-1,3-dioxoisoindolin-4-yl)amino)ethoxy)ethoxy)ethoxy)ethyl)propanamide]", "values": [
      {"measurement": "suppression of AKT protein level and AKT activity", "setting": "AKT [2]", "result": "effective in suppressing both AKT protein level and AKT activity"}
    ]},
    {"molecule": "Cc1ncsc1-c1ccc(CNC(=O)[C@@H]2C[C@@H](O)CN2C(=O)[C@@H](NC(=O)CCCCCCCCC(=O)N2CCN(CC[C@H](NC(=O)C3(N)CCN(c4ncnc5[nH]ccc45)CC3)c3ccc(Cl)cc3)CC2)C(C)(C)C)cc1", "note": "[XF050-20, 4-amino-N-((S)-1-(4-chlorophenyl)-3-(4-(10-(((S)-1-((2S,4R)-4-hydroxy-2-((4-(4-methylthiazol-5-yl)benzyl)carbamoyl)pyrrolidin-1-yl)-3,3-dimethyl-1-oxobutan-2-yl)amino)-10-oxodecanoyl)piperazin-1-yl)propyl)-1-(7H-pyrrolo[2,3-d]pyrimidin-4-yl)piperidine-4-carboxamide]", "values": [
      {"measurement": "suppression of AKT protein level and AKT activity", "setting": "AKT [2]", "result": "effective in suppressing both AKT protein level and AKT activity"}
    ]},
    {"molecule": "Cc1ncsc1-c1ccc(CNC(=O)[C@@H]2C[C@@H](O)CN2C(=O)[C@@H](NC(=O)CCCCC(=O)N2CCN(CC[C@H](NC(=O)C3(N)CCN(c4ncnc5[nH]ccc45)CC3)c3ccc(Cl)cc3)CC2)C(C)(C)C)cc1", "note": "[XF050-16, 4-amino-N-((S)-1-(4-chlorophenyl)-3-(4-(6-(((S)-1-((2S,4R)-4-hydroxy-2-((4-(4-methylthiazol-5-yl)benzyl)carbamoyl)pyrrolidin-1-yl)-3,3-dimethyl-1-oxobutan-2-yl)amino)-6-oxohexanoyl)piperazin-1-yl)propyl)-1-(7H-pyrrolo[2,3-d]pyrimidin-4-yl)piperidine-4-carboxamide]", "values": [
      {"measurement": "suppression of AKT protein level and AKT activity", "setting": "AKT [2]", "result": "effective in suppressing both AKT protein level and AKT activity"}
    ]},
    {"molecule": "NC1(C(=O)N[C@@H](CCN2CCN(C(=O)CCOCCOCCOCCOCCOCCOCCNc3cccc4c3C(=O)N(C3CCC(=O)NC3=O)C4=O)CC2)c2ccc(Cl)cc2)CCN(c2ncnc3[nH]ccc23)CC1", "note": "(stereo partly drawn) [XF056-33, 4-amino-N-((1S)-1-(4-chlorophenyl)-3-(4-(1-((2-(2,6-dioxopiperidin-3-yl)-1,3-dioxoisoindolin-4-yl)amino)-3,6,9,12,15,18-hexaoxahenicosan-21-oyl)piperazin-1-yl)propyl)-1-(7H-pyrrolo[2,3-d]pyrimidin-4-yl)piperidine-4-carboxamide]", "values": [
      {"measurement": "suppression of AKT protein level and AKT activity", "setting": "AKT [2]", "result": "effective in suppressing both AKT protein level and AKT activity"}
    ]},
    {"molecule": "C[C@@H]1C[C@@H](O)c2ncnc(N3CCN(C(=O)[C@H](CNCCNC(=O)CCOCCOCCNc4cccc5c4C(=O)N(C4CCC(=O)NC4=O)C5=O)c4ccc(Cl)cc4)CC3)c21", "note": "(stereo partly drawn) [XF048-1, N-(2-(((N)-2-(4-chlorophenyl)-3-(4-((5R,7R)-7-hydroxy-5-methyl-6,7-dihydro-5H-cyclopenta[d]pyrimidin-4-yl)piperazin-1-yl)-3-oxopropyl)amino)ethyl)-3-(2-(2-((2-(2,6-dioxopiperidin-3-yl)-1,3-dioxoisoindolin-4-yl)amino)ethoxy)ethoxy) propanamide]", "values": [
      {"measurement": "suppression of AKT protein level and AKT activity", "setting": "AKT [2]", "result": "effective in suppressing both AKT protein level and AKT activity"}
    ]},
    {"molecule": "Cc1ncsc1-c1ccc(CNC(=O)[C@@H]2C[C@@H](O)CN2C(=O)[C@@H](NC(=O)COCCOCC(=O)N2CCN(CC[C@H](NC(=O)C3(N)CCN(c4ncnc5[nH]ccc45)CC3)c3ccc(Cl)cc3)CC2)C(C)(C)C)cc1", "note": "[XF050-7, 4-amino-N-((S)-1-(4-chlorophenyl)-3-(4-(2-(2-(2-(((S)-1-((2S,4R)-4-hydroxy-2-((4-(4-methylthiazol-5-yl)benzyl)carbamoyl)pyrrolidin-1-yl)-3,3-dimethyl-1-oxobutan-2-yl)amino)-2-oxoethoxy)ethoxy)acetyl)piperazin-1-yl)propyl)-1-(7H-pyrrolo[2,3-d]pyrimidin-4-yl)piperidine-4-carboxamide]", "values": [
      {"measurement": "suppression of AKT protein level and AKT activity", "setting": "AKT [2]", "result": "effective in suppressing both AKT protein level and AKT activity"}
    ]},
    {"molecule": "Cc1ncsc1-c1ccc(CNC(=O)[C@@H]2C[C@@H](O)CN2C(=O)[C@@H](NC(=O)CCCCCCC(=O)N2CCN(CC[C@H](NC(=O)C3(N)CCN(c4ncnc5[nH]ccc45)CC3)c3ccc(Cl)cc3)CC2)C(C)(C)C)cc1", "note": "[XF050-18, 4-amino-N-((S)-1-(4-chlorophenyl)-3-(4-(8-(((S)-1-((2S,4R)-4-hydroxy-2-((4-(4-methylthiazol-5-yl)benzyl)carbamoyl)pyrrolidin-1-yl)-3,3-dimethyl-1-oxobutan-2-yl)amino)-8-oxooctanoyl)piperazin-1-yl)propyl)-1-(7H-pyrrolo[2,3-d]pyrimidin-4-yl)piperidine-4-carboxamide]", "values": [
      {"measurement": "suppression of AKT protein level and AKT activity", "setting": "AKT [2]", "result": "effective in suppressing both AKT protein level and AKT activity"}
    ]}
  ]
}
